The source of these data is BindingDB's records for doi:10.1021/jm0700924 (Astex Therapeutics, 2007).

The target in experiment [1] is cAMP-dependent protein kinase catalytic subunit alpha (Bos taurus, UniProt P00517). The experiment is described as follows: PKA In Vitro Enzyme Assay. As to conditions: pH 7.2; 22 °C.
In experiment [2] the target is RAC-beta serine/threonine-protein kinase (Homo sapiens, UniProt P31751). The experiment is described as follows: PKB In Vitro Enzyme Assay. As to conditions: pH 7.2; 22 °C.
RAC-beta serine/threonine-protein kinase, sequence (P31751 whole entry): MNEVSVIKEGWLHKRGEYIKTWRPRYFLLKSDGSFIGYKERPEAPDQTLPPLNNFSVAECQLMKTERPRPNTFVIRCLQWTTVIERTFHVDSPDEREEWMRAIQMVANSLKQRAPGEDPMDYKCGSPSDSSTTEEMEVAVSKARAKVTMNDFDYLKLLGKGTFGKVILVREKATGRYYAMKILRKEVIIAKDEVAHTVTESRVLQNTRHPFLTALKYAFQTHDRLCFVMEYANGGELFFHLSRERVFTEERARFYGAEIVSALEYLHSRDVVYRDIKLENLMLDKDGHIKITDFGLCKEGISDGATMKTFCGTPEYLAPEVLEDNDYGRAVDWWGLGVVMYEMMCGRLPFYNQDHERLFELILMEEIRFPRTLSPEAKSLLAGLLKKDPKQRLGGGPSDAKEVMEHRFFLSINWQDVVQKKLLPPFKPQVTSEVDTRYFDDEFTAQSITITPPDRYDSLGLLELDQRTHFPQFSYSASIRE

Take `CNCC(c1ccc(Cl)cc1)c1ccc(-c2ncnc3nc[nH]c23)cc1` (configuration not stated) [[2-(4-chlorophenyl)-2-[4-(9H-purin-6-yl)phenyl]ethyl](methyl)amine]: the results for the half-inhibitory concentration (IC50) in experiment [1] and in experiment [2] were 0.015 µM and 0.01 µM, respectively.

In general, IC50 refers to the concentration needed to halve the response being measured. Higher therefore signals weaker potency in that assay.
